Source: patent US6156762A, “Indolomorphinan derivative and agent for curing and preventing cerebral disorder” (Toray Industries, Inc., priority 1997, dated 2000)

Each compound was assayed on cultured nerve cells (assay: Action of protecting cultured nerve cells from glutamic acid toxicity (LDH leakage)). Details: rat fetal cerebral cortex cells, 10 mM glutamic acid, 24 hours, read-out: ED50 (the source's name).
Assay type: cell-based, Wistar rat
Text: It is known that when the blood flow to the brain is temporarily clogged due to cerebral ischemia, hypoxia, or an trauma, delayed cerebral neuronal death is induced [Document: Brain Research, Vol. 239, 57 (1982)]. A possible cause of such damage of the cerebral nerve cells is excitatory toxicity due to an excitatory neutotransmitter such as glutamic acid or the like, which is excessively released with ischemia [Document: Trends in Neuroscience, vol. 10, 299 (1987)]. […] This is a problem to be solved by the invention. This action was evaluated by using the in vitro evaluation system which will be described below.
A fetus was taken from the abdomen of a Wistar female rat on the 18 to 19th day of pregnancy under aseptic conditions, and the head of the fetus was opened to extract the brain. The brain was placed in an ice-cooled L-15 medium, and the cerebral cortex was separated under a microscope. The cerebral cortexes of about 30 rats were cut into pieces, and then suspended in 10 ml of a 0.25% trypsin solution and 0.2 ml of a 0.01% DNase solution, followed by culture at 37° C. for 30 minutes. Then, 2 ml of serum was added to the solution, and immediately the resultant mixture was centrifuged at 120 rpm for 2 minutes to separate the precipitates. To the precipitates was added 7 ml of a DF medium (a medium obtained by adding 20 nM of transferrin, 5 μg/ml of insulin, 20 nM of progesterone,60 nM of selenite, 50 U/ml of penicillin, and 50 U/ml of streptomycin to a mixture equivalent amounts of Dulbecco modified Eagle medium and F-12 medium), followed by 20 pipetting operations using a 10-ml plastic pipette to obtain a cell suspension. The cell suspension was filtered with nylon mesh (pore diameter 43 μm) to fractionate isolated cells. The thus-obtained isolated cells were diluted with a DF medium to a concentration of 6.0×10^5 cells/ml, and 500 μl of the diluted cells was inoculated in each of the 48 wells of a 48-well culture plate precoated with polylysine, followed by culture at 37° C. for 1 day in the presence of 5% of CO2. On the 2nd day, the medium was changed to a new DF medium, and 10 μl of a solution of 0.5M glutamic acid in distilled water was added to each of the wells (the final glutamic acid concentration was 10 mM), followed by further culture at 37° C. for 24 hours in the presence 5% of CO2. A test compound was dissolved in distilled water, 10% or 100% DMSO or 10% methanol, and 5 μl of the solution was added to each of the wells immediately before glutamic acid was added. As an index of nerve cell damage, the enzyme activity of lactic acid dehydrogenase (LDH) leaking from the damaged cells into the medium was measured. For each of the test compounds, the LDH leakage was measured at each of concentrations to determine a dose-response curve by the modified Cochran-Armitige method. The 50% effective dose (ED50) of each of the test compounds we determined from the curve.
Compound Oc1ccc2c3c1O[C@H]1c4c(c5ccccc5n4-c4ccccc4)C[C@@]4(O)[C@@H](C2)N(CC2CC2)CC[C@]314 [Compound 4, 17-cyclopropylmethyl-3,14β-dihydroxy-6,7-dehydro-4,5α-epoxy-6,7,2',3'-(1'-phenylindolo)morphinan] has an EC50 of 80 nM. In the case of CCCCCCCc1ccc2c3c([nH]c2c1)[C@@H]1Oc2c(O)ccc4c2[C@@]12CCN(CC1CC1)[C@H](C4)[C@]2(O)C3 [Compound 7, 17-cyclopropylmethyl-3,14β-dihydroxy-6,7-dehydro-4,5α-epoxy-6,7,2',3'-(6'-heptylindolo)morphinan], the EC50 is reported as 200 nM. In the case of N#Cc1cc2c3c([nH]c2c2ccccc12)[C@@H]1Oc2c(O)ccc4c2[C@@]12CCN(CC1CC1)[C@H](C4)[C@]2(O)C3 [Compound 11, 17-cyclopropylmethyl-3,14β-dihydroxy-6,7-dehydro-4,5α-epoxy-6,7,2',3'-(5'-cyano-6',7'-benzoindolo)morphian], the EC50 is reported as 138 nM. Cc1cc2c3c([nH]c2c2ccccc12)[C@@H]1Oc2c(O)ccc4c2[C@@]12CCN(CC1CC1)[C@H](C4)[C@]2(O)C3 [Compound 13, 17-cyclopropylmethyl-3,14β-dihydroxy-6,7-dehydro-4,5α-epoxy-6,7,2',3'-(5'-methyl-6',7'-benzoindolo)morphinan] was tested, and the EC50 was 93 nM. Work on Oc1ccc2c3c1O[C@H]1c4[nH]c5c(cc(-c6ccccc6)c6ccccc65)c4C[C@@]4(O)[C@@H](C2)N(CC2CC2)CC[C@]314 [Compound 15, 17-cyclopropylmethyl-3,14β-dihydroxy-6,7-dehydro-4,5α-epoxy-6,7,2',3'-(5'-phenyl-6',7'-benzoindolo)morphinan] yielded an EC50 of 150 nM. Compound Oc1ccc2c3c1O[C@H]1c4[nH]c5c6c(ccc5c4C[C@@]4(O)[C@@H](C2)N(CC2CC2)CC[C@]314)Cc1ccccc1-6 [Compound 22, 17-cyclopropylmethyl-3,14β-dihydroxy-6,7-dehydro-4,5α-epoxy-6,7,2',3'-(6',7',2",3"-indenoindolo)morphinan] has an EC50 of 50 nM. NCCCn1c2c(c3ccccc31)C[C@@]1(O)[C@H]3Cc4ccc(O)c5c4[C@@]1(CCN3CC1CC1)[C@H]2O5 [Compound 24, 17-cyclopropylmethyl-3,14β-dihydroxy-6,7-dehydro-4,5α-epoxy-6,7,2',3'-[1'-(3-aminopropyl)indolo]morphinan] showed an EC50 of 800 nM. Work on Oc1ccc2c3c1O[C@H]1c4c(c5ccccc5n4CCCN=C=S)C[C@@]4(O)[C@@H](C2)N(CC2CC2)CC[C@]314 [Compound 59, 17-cyclopropylmethyl-3,14β-dihydroxy-6,7-dehydro-4,5α-epoxy-6,7,2',3'-[1'-(3-isothiocyanatopropyl)indolo]morphinan] yielded an EC50 of 110 nM. Oc1ccc2c3c1O[C@H]1c4c(c5ccc6ccccc6c5n4CCCN=C=S)C[C@@]4(O)[C@@H](C2)N(CC2CC2)CC[C@]314 [Compound 60, 17-cyclopropylmethyl-3,14β-dihydroxy-6,7-dehydro-4,5α-epoxy-6,7,2',3'-[1'-(3-isothiocyanatopropyl)-6',7'-benzoindolo)morphinan] showed an EC50 of 93 nM. O=C(/C=C/c1cccc(C(F)(F)F)c1)NCCCn1c2c(c3ccccc31)C[C@@]1(O)[C@H]3Cc4ccc(O)c5c4[C@@]1(CCN3CC1CC1)[C@H]2O5 [Compound 63, 17-cyclopropylmethyl-3,14β-dihydroxy-6,7-dehydro-4,5α-epoxy-6,7,2',3'-[1'-[3-(3-trifluoromethylcinnamido)propyl]indolo]morphinan] was tested, and the EC50 was 150 nM. For O=C(/C=C/c1cccc(C(F)(F)F)c1)NCCCn1c2c(c3ccc4ccccc4c31)C[C@@]1(O)[C@H]3Cc4ccc(O)c5c4[C@@]1(CCN3CC1CC1)[C@H]2O5 [Compound 65, 17-cyclopropylmethyl-3,14β-dihydroxy-6,7-dehydro-4,5α-epoxy-6,7,2',3'-[1'-(3-(3-trifluoromethylcinnamamido)propyl)-6',7'-benzoindolo]morphinan], the EC50 was 110 nM. With Oc1ccc2c3c1O[C@H]1c4c(c5ccccc5n4Cc4ccccc4)C[C@@]4(O)[C@@H](C2)N(CC2CC2)CC[C@]314 [Compound 68, 17-cyclopropylmethyl-3,14β-dihydroxy-6,7-dehydro-4,5α-epoxy-6,7,2',3'-(1'-benzylindolo)morphinan] the EC50 was 91 nM. In the case of Cc1ccc(Cn2c3c(c4ccc5ccccc5c42)C[C@@]2(O)[C@H]4Cc5ccc(O)c6c5[C@@]2(CCN4CC2CC2)[C@H]3O6)cc1 [Compound 71], the EC50 is reported as 19 nM. With Oc1ccc2c3c1O[C@H]1c4c(c5cc6c7c(cccc7c5n4Cc4ccccc4)CC6)C[C@@]4(O)[C@@H](C2)N(CC2CC2)CC[C@]314 [Compound 83, 17-cyclopropylmethyl-3,14β-dihydroxy-6,7-dehydro-4,5α-epoxy-6,7,2',3'-(1'-benzyl-5',6"-ethano-6',7'-benzoindolo)morphinan] the EC50 was 73 nM. Compound Cn1c2c(c3cc4c5c(cccc5c31)CC4)C[C@@]1(O)[C@H]3Cc4ccc(O)c5c4[C@@]1(CCN3CC1CC1)[C@H]2O5 [Compound 84, 17-cyclopropylmethyl-3,14β-dihydroxy-6,7-dehydro-4,5α-epoxy-6,7,2',3'-(1'-methyl-5',6"-ethano-6',7'-benzoindolo)morphinan] has an EC50 of 39 nM.

These compounds were tested on middle cerebral artery ischemia model of rat (assay: Infarction inhibiting action in middle cerebral artery ischemia (MCAo-recirculation) model of rat). Details: ip, 24 h, 3 mg/kg i.p. 10 minutes before occlusion and 1 hour after recirculation, infarction volume one day after, vs control group, read-out: Rate of inhibition of infarction.
Assay type: in vivo
Text: It is also known that, in this way, in the acute stage of cerebral infarction, the lesion proceeds to the peripheral tissue from the core of infarction, and death of the nerve cells is extended with the passage of several days. This possible not only extends and creates grave aftereffects, and causes loss of motor and mental function, but also finally critically influences on the life. As an in vivo experimental model of cerebral infarction which is capable of precisely evaluating the clinical effect of a medicine in conformity with clinical conditions of the disease of a patient of cerebral infarction, the middle cerebral artery occlusion (MCAo)-recirculation model comprising an embolus with a yarn using Wister rates may be used [Document: Japan Journal of Stroke, vol. 8, 1 (1986)]. […] This action was evaluated by applying the MCAo model by the method which will be described below.
In rats of 10 weeks old, after etherization, a median incision of the cervical region was made up to the right carotid artery bifurcation under 1.0% halothane anesthetization with care to preserve the vagus nerves. The common carotid artery and the external carotid artery were separated from the periphery connective tissue with the right carotid artery bifurcation as the center, and each of the arteries was ligated by a 6-0 silk yarn (Eto yarn). Further, a yarn was wound on the internal carotid artery origin in preparation for ligation and fixing after insertion of the embolus. Next, the common carotid artery was incised, and the embolus was inserted from the common carotid artery to the internal carotid artery by about 15 to 16 mm, and ligated and fixed to the internal carotid artery by the silk yarn at the end thereof near the nylon yarn. In this operation, the end of the embolus was inserted into the anterior cerebral artery by about 1 to 2 mm beyond the middle cerebral artery bifurcation, and the inlet of the middle cerebral artery was occluded by the body (resin part) of the embolus for 1 hours. In recirculation, the embolus with a yarn was removed to recirculate the blood flow to the middle cerebral artery. 3 mg/kg of each of test compounds was intraperitoneally administered 10 minutes before occlusion and 1 hour after recirculation of the blood flow. One day after occlusion and recirculation, the whole body was perfused with physiologic saline through the heart, and the brain was extracted. The extracted brain was cooled with ice and water for 5 minutes, and cut at intervals of 2.0 mm to form 7 sections of the cerebral coronal surface. Each of the sections was stained with TTC (Triphenyltetrazolium Chloride), and fixed by a 5% neutral buffer formalin solution. In each of the sections, the infarction area in the right cerebral hemisphere was measured by an image analyzer (Olympus), and the infarction was evaluated by volume (mm^3). The infarction volume was compared with the infarction volume of a control group to calculate the rate of inhibition of infarction.
In the case of Oc1ccc2c3c1O[C@H]1c4[nH]c5ccccc5c4C[C@@]4(O)[C@@H](C2)N(CC2CC2)CC[C@]314 [Compound 1, 17-cyclopropylmethyl-3,14β-dihydroxy-6,7-dehydro-4,5α-epoxy-6,7,2',3'-indolomorphinan], the inhibition in vivo at 3 mg/kg is reported as 23%. Oc1ccc2c3c1O[C@H]1c4[nH]c5c(cc(Cl)c6ccccc65)c4C[C@@]4(O)[C@@H](C2)N(CC2CC2)CC[C@]314 [Compound 10, 17-cyclopropylmethyl-3,14β-dihydroxy-6,7-dehydro-4,5α-epoxy-6,7,2',3'-(5'-chloro-6',7'-benzoindolo)morphinan] was tested, and the inhibition in vivo at 3 mg/kg was 15%. In the case of COc1ccc2c3c1O[C@H]1c4[nH]c5ccc(C(C)(C)C)cc5c4C[C@@]4(O)[C@@H](C2)N(CC2CC2)CC[C@]314 [Compound 16, 17-cyclopropylmethyl-3-methoxy-14β-hydroxy-6,7-dehydro-4,5α-epoxy-6,7,2',3'-(5'-t-butylindolo)morphinan], the inhibition in vivo at 3 mg/kg is reported as 22%. For Oc1ccc2c3c1O[C@H]1c4[nH]c5c6ccccc6c6ccccc6c5c4C[C@@]4(O)[C@@H](C2)N(CC2CC2)CC[C@]314 [Compound 23, 17-cyclopropylmethyl-3,14β-dihydroxy-6,7-dehydro-4,5α-epoxy-6,7,2',3'-(4',5',6',7'-debenzoindolo)morphinan], the inhibition in vivo at 3 mg/kg was 79%.
